The results in this text go back to patent publication US10538555B2, “Macrocyclic inhibitors of the PD-1/PD-L1 and CD80(B7-1)/PD-L1 protein/protein interactions” (BRISTOL-MYERS SQUIBB COMPANY, priority 2014, dated 2020).

SMILES strings stand for the structures. *1 amine or outer side, *2 acyl side, *3 side chain or, on linkers, in order; H or OH if unused. Where a SMILES comes first, the peptide text is derived from it. Bridges are numbered along the chain shown (N, C = ends). [ ]: non-standard residue; d: D form. ξ: configuration not given here. Phe(3,4,5-F3) = N[C@@H](Cc1cc(F)c(F)c(F)c1)C(=O)O; Phe(3,4-F2) = N[C@@H](Cc1ccc(F)c(F)c1)C(=O)O; NMePhe(4-F) = CN[C@@H](Cc1ccc(F)cc1)C(=O)O; Phe(4-F) = N[C@@H](Cc1ccc(F)cc1)C(=O)O; d(cisHyp) = O=C(O)[C@H]1C[C@@H](O)CN1; NMeIle(3ξ) = CCC(C)[C@H](NC)C(=O)O; Hyp = O=C(O)[C@@H]1C[C@@H](O)CN1; NMeF = CN[C@@H](Cc1ccccc1)C(=O)O; X1 = O=C([C@H]1COCCN1[*:1])[*:2]; dNMeF = CN[C@H](Cc1ccccc1)C(=O)O; dPip(4-aza) = O=C(O)[C@H]1CNCCN1; dHyp = O=C(O)[C@H]1C[C@H](O)CN1; NMeL = CN[C@@H](CC(C)C)C(=O)O; NMehSer = CN[C@@H](CCO)C(=O)O; NMeNle = CCCC[C@H](NC)C(=O)O; dPip = O=C(O)[C@H]1CCCCN1; hSer = N[C@@H](CCO)C(=O)O; NMeA = CN[C@@H](C)C(=O)O; Orn = NCCC[C@H](N)C(=O)O; dThz = O=C(O)[C@H]1CSCN1; Dab = NCC[C@H](N)C(=O)O; Dap = NC[C@H](N)C(=O)O; ξC = NC(CS)C(=O)O; Sar = CNCC(=O)O

This experiment addresses T1, Human PD-L1/PD-1 (Homo sapiens, UniProt Q9NZQ7).
T1 construct: TVMV protease cleavage site (C); made in house; host or cells: HEK293T cells
The experiment can be described thus: HTRF Human PD-L1/PD-1 binding assay (PD-1-Ig/PD-L1-His). The note with it: PD-L1-His 10 nM, PD-1-Ig 20 nM; class symbol; read-out: HTRF Human PD-L1/PD-1 Binding Assay IC50 Range. The gist of the method:
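Soluble HEK293T-expressed proteins: hPD-L1-His 10 nM, hPD-1-Ig 20 nM final. Cpd + PD-L1 15 min, + PD-1 15 min, + Eu anti-Ig 1 nM/APC anti-His 20 nM 30 min. Buffer dPBS, 0.1% BSA, 0.05% Tween-20. TR-FRET 665/620.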

T1 sequence (Q9NZQ7 with tags, fused parts or gaps): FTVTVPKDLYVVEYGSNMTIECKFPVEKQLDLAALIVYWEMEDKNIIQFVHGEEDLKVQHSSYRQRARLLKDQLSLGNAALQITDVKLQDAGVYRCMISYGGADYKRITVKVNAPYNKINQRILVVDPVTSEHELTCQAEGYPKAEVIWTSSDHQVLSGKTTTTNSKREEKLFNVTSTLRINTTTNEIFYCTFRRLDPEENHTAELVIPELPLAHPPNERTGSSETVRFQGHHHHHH

`CCCC[C@H]1C(=O)N(C)CC(=O)N[C@@H](CC(=O)O)C(=O)N[C@@H](C)C(=O)N(C)[C@@H](Cc2ccccc2)C(=O)N[C@@H](Cc2ccc(O)cc2)C(=O)N2CSC[C@@H]2C(=O)N[C@@H](Cc2c[nH]c3ccccc23)C(=O)N[C@@H](Cc2ccc(O)cc2)C(=O)N[C@@H](CC(C)C)C(=O)N[C@H](C(=O)NCC(N)=O)CSCC(=O)N[C@@H](Cc2ccccc2)C(=O)N(C)[C@@H](Cc2ccccc2)C(=O)N1C` [Example 10082] ({CH2CO}-F[NMeF][NMeNle][Sar]DA[NMeF]Y[dThz]WYLCG-NH2; thioether N-13): the IC50 was in the range of 100 to 990 nM.
Turning to `CCCC[C@H]1C(=O)N2C[C@H](O)C[C@@H]2C(=O)N[C@@H](CC(=O)O)C(=O)N[C@@H](C(C)C)C(=O)N(C)[C@@H](Cc2ccccc2)C(=O)N[C@@H](CCC(N)=O)C(=O)N2C[C@H](O)C[C@@H]2C(=O)N[C@@H](Cc2c[nH]c3ccccc23)C(=O)N[C@@H](Cc2ccc(O)cc2)C(=O)N[C@@H](CC(N)=O)C(=O)N[C@H](C(=O)NCC(N)=O)CSCC(=O)N[C@@H](Cc2cc(F)c(F)c(F)c2)C(=O)N(C)[C@@H](Cc2ccccc2)C(=O)N1C` [Example 9360] ({CH2CO}-[Phe(3,4,5-F3)][NMeF][NMeNle][d(cisHyp)]DV[NMeF]Q[d(cisHyp)]WYNCG-NH2; thioether N-13), the IC50 lay in the range of 1 to 9.9 nM.
Regarding `CCCC[C@H]1C(=O)N2C[C@H](O)C[C@@H]2C(=O)N[C@@H](CC(=O)O)C(=O)N[C@@H](C(C)C)C(=O)N(C)[C@@H](Cc2ccccc2)C(=O)N[C@@H](CCC(=O)O)C(=O)N2CCNC[C@@H]2C(=O)N[C@@H](Cc2c[nH]c3ccccc23)C(=O)N[C@@H](Cc2ccc(O)cc2)C(=O)N[C@@H](CCCCN)C(=O)N[C@H](C(=O)NCC(N)=O)CSCC(=O)N[C@@H](Cc2cc(F)c(F)c(F)c2)C(=O)N(C)[C@@H](Cc2ccccc2)C(=O)N1C` [Example 10164] ({CH2CO}-[Phe(3,4,5-F3)][NMeF][NMeNle][d(cisHyp)]DV[NMeF]E[dPip(4-aza)]WYKCG-NH2; thioether N-13), the IC50 lay in the range of 1 to 9.9 nM.
The result for `CCCC[C@H]1C(=O)N2CCOC[C@@H]2C(=O)N[C@@H](CC(=O)O)C(=O)N[C@@H](C(C)C)C(=O)N(C)[C@@H](Cc2ccccc2)C(=O)N[C@@H](CCCN)C(=O)N2C[C@H](O)C[C@@H]2C(=O)N[C@@H](Cc2c[nH]c3ccccc23)C(=O)N[C@@H](Cc2ccc(O)cc2)C(=O)N[C@@H](CCOC)C(=O)N[C@H](C(=O)NCC(N)=O)CSCC(=O)N[C@@H](Cc2cc(F)c(F)c(F)c2)C(=O)N(C)[C@@H](Cc2ccccc2)C(=O)N1C` [Example 10184] ({CH2CO}-[Phe(3,4,5-F3)][NMeF][NMeNle][X1]DV[NMeF][Orn][d(cisHyp)]WY[hSer](Me)CG-NH2; thioether N-13) reads 10 to 99.9 nM.
For `CCCC[C@H]1C(=O)N[C@@H](CCC(=O)O)C(=O)N[C@H](C(=O)NCC(N)=O)CSCC(=O)N[C@@H](Cc2ccc(O)cc2)C(=O)N(C)[C@@H](C)C(=O)N[C@@H](CC(=O)O)C(=O)N2CCC[C@H]2C(=O)N[C@@H](Cc2c[nH]cn2)C(=O)N[C@@H](CCC(N)=O)C(=O)N2C[C@H](O)C[C@H]2C(=O)N[C@@H](Cc2c[nH]c3ccccc23)C(=O)N[C@@H](CO)C(=O)N[C@@H](Cc2c[nH]c3ccccc23)C(=O)N(C)[C@@H](CCOC)C(=O)N1C` [Example 10136] ({CH2CO}-Y[NMeA]DPHQ[Hyp]WSW[NMehSer](Me)[NMeNle]ECG-NH2; thioether N-14), the IC50 was 1 to 9.9 nM.
Take `CCCC[C@H]1C(=O)N2C[C@H](O)C[C@@H]2C(=O)N[C@@H](CC(=O)O)C(=O)N[C@@H](C(C)C)C(=O)N(C)[C@@H](Cc2ccccc2)C(=O)N[C@@H](CC(=O)O)C(=O)N2CCOC[C@@H]2C(=O)N[C@@H](Cc2c[nH]c3ccccc23)C(=O)N[C@@H](Cc2ccc(O)cc2)C(=O)N[C@@H](CCOC)C(=O)N[C@H](C(=O)NCC(N)=O)CSCC(=O)N[C@@H](Cc2cc(F)c(F)c(F)c2)C(=O)N(C)[C@@H](Cc2ccccc2)C(=O)N1C` [Example 10161] ({CH2CO}-[Phe(3,4,5-F3)][NMeF][NMeNle][d(cisHyp)]DV[NMeF]D[X1]WY[hSer](Me)CG-NH2; thioether N-13): the IC50 lay within 1 to 9.9 nM.
Regarding `CCCC[C@H]1C(=O)N2CCC[C@@H]2C(=O)N[C@@H](CC(=O)O)C(=O)N[C@@H](C(C)C)C(=O)N(C)[C@@H](CC(C)C)C(=O)N[C@@H](CCC(N)=O)C(=O)N2CCC[C@@H]2C(=O)N[C@@H](Cc2c[nH]c3ccccc23)C(=O)N[C@@H](Cc2ccc(O)cc2)C(=O)N[C@@H](CCCN)C(=O)N[C@H](C(=O)NCC(N)=O)CSCC(=O)N[C@@H](Cc2ccc(F)cc2)C(=O)N(C)[C@@H](Cc2ccccc2)C(=O)N1C` [Example 9255] ({CH2CO}-[Phe(4-F)][NMeF][NMeNle][dP]DV[NMeL]Q[dP]WY[Orn]CG-NH2; thioether N-13), the IC50 lay within 1000 to 10000 nM.
On to `CCCC[C@H]1C(=O)N(C)[C@@H](CCCC)C(=O)N[C@@H](CCC(=O)O)C(=O)N[C@H](C(=O)NCC(N)=O)CSCC(=O)N[C@@H](Cc2ccc(O)cc2)C(=O)N(C)[C@@H](C)C(=O)N[C@@H](CC(=O)O)C(=O)N2CCC[C@H]2C(=O)N[C@@H](CN)C(=O)N[C@@H](CCC(N)=O)C(=O)N2C[C@H](O)C[C@H]2C(=O)N[C@@H](Cc2c[nH]c3ccccc23)C(=O)N[C@@H](CCN)C(=O)N[C@@H](Cc2c[nH]c3ccccc23)C(=O)N1C` [Example 5200] ({CH2CO}-Y[NMeA]DP[Dap]Q[Hyp]W[Dab]W[NMeNle][NMeNle]ECG-NH2; thioether N-14), for which the IC50 was 1 to 9.9 nM.
As to `CCCC[C@H]1C(=O)N2CCC[C@@H]2C(=O)N[C@@H](CC(=O)O)C(=O)N[C@@H](C(C)C)C(=O)N(C)[C@@H](Cc2ccccc2)C(=O)N[C@@H](CCC(=O)O)C(=O)N2CCCC[C@@H]2C(=O)N[C@@H](Cc2c[nH]c3ccccc23)C(=O)N[C@@H](Cc2ccc(O)cc2)C(=O)N[C@@H](CO)C(=O)N[C@H](C(=O)NCC(N)=O)CSCC(=O)N[C@@H](Cc2cc(F)c(F)c(F)c2)C(=O)N(C)[C@@H](Cc2ccc(F)cc2)C(=O)N1C` [Example 10565] ({CH2CO}-[Phe(3,4,5-F3)][NMePhe(4-F)][NMeNle][dP]DV[NMeF]E[dPip]WYSCG-NH2; thioether N-13), the IC50 is 1 to 9.9 nM.
Regarding `CCCC[C@H]1C(=O)N(C)[C@@H](CCCC)C(=O)N[C@@H](CCCNC(=N)N)C(=O)NC(C(=O)NCC(N)=O)CSCC(=O)N[C@@H](Cc2ccc(O)cc2)C(=O)N(C)[C@@H](C)C(=O)N[C@@H](CC(N)=O)C(=O)N2CCC[C@H]2C(=O)N[C@@H](CO)C(=O)N[C@@H](CO)C(=O)N2C[C@H](O)C[C@H]2C(=O)N[C@@H](Cc2c[nH]c3ccccc23)C(=O)N[C@@H](CO)C(=O)N[C@@H](Cc2c[nH]c3ccccc23)C(=O)N1C` (stereo partly drawn) [Example 10018] ({CH2CO}-Y[NMeA]NPSS[Hyp]WSW[NMeNle][NMeNle]R[ξC]G-NH2; thioether N-14), the IC50 was 10 to 99.9 nM.
Turning to `CCCC[C@H]1C(=O)N2C[C@@H](O)C[C@@H]2C(=O)N[C@@H](CC(=O)O)C(=O)N[C@@H](C(C)C)C(=O)N(C)[C@H](Cc2ccccc2)C(=O)N[C@@H](Cc2ccc(OC)cc2)C(=O)N2C[C@@H](O)C[C@@H]2C(=O)N[C@@H](Cc2c[nH]c3ccccc23)C(=O)N[C@@H](Cc2ccc(O)cc2)C(=O)N[C@@H](CC(C)C)C(=O)N[C@H](C(=O)NCC(N)=O)CSCC(=O)N[C@@H](Cc2ccc(F)c(F)c2)C(=O)N(C)[C@@H](Cc2ccccc2)C(=O)N1C` [Example 9226] ({CH2CO}-[Phe(3,4-F2)][NMeF][NMeNle][dHyp]DV[dNMeF]Y(Me)[dHyp]WYLCG-NH2; thioether N-13), the IC50 was 10 to 99.9 nM.
As to `CCCC[C@H]1C(=O)N[C@@H](CC(N)=O)C(=O)N2CCC[C@H]2C(=O)N[C@@H](CO)C(=O)N[C@@H](CCO)C(=O)N2CCC[C@H]2C(=O)N[C@@H](Cc2c[nH]c3ccccc23)C(=O)N[C@@H](CO)C(=O)N[C@@H](Cc2c[nH]c3ccccc23)C(=O)N(C)[C@@H](C)C(=O)N(C)[C@@H](C)C(=O)N[C@@H](CCCCN)C(=O)NC(C(=O)NCC(N)=O)CSCC(=O)N[C@@H](Cc2ccc(O)cc2)C(=O)N1C` (stereo partly drawn) [Example 10208] ({CH2CO}-Y[NMeNle]NPS[hSer]PWSW[NMeA][NMeA]K[ξC]G-NH2; thioether N-14), the IC50 was in the range of 1000 to 10000 nM.
The result for `CCCC[C@H]1C(=O)N2CCC[C@@H]2C(=O)N[C@@H](CC(=O)O)C(=O)N[C@@H](C(C)C)C(=O)N(C)[C@@H](C(C)CC)C(=O)N[C@@H](CCC(N)=O)C(=O)N2CCC[C@@H]2C(=O)N[C@@H](Cc2c[nH]c3ccccc23)C(=O)N[C@@H](Cc2ccc(O)cc2)C(=O)N[C@@H](CC(C)C)C(=O)N[C@H](C(=O)NCC(N)=O)CSCC(=O)N[C@@H](Cc2ccc(F)cc2)C(=O)N(C)[C@@H](Cc2ccccc2)C(=O)N1C` (stereo partly drawn) [Example 9260] ({CH2CO}-[Phe(4-F)][NMeF][NMeNle][dP]DV[NMeIle(3ξ)]Q[dP]WYLCG-NH2; thioether N-13) reads 1000 to 10000 nM.
The result for `CCCC[C@H]1C(=O)N[C@@H](Cc2ccc(O)cc2)C(=O)N2CCCC[C@@H]2C(=O)N[C@@H](Cc2c[nH]c3ccccc23)C(=O)N[C@@H](Cc2ccc(O)cc2)C(=O)N[C@@H](CC(C)C)C(=O)N[C@H](C(=O)NCC(N)=O)CSCC(=O)N[C@@H](Cc2ccc(F)cc2)C(=O)N(C)[C@@H](Cc2ccccc2)C(=O)N(C)[C@@H](CCCC)C(=O)N2CCC[C@@H]2C(=O)N[C@@H](CC(=O)O)C(=O)N[C@@H](C(C)C)C(=O)N1C` [Example 9214] ({CH2CO}-[Phe(4-F)][NMeF][NMeNle][dP]DV[NMeNle]Y[dPip]WYLCG-NH2; thioether N-13) reads 100 to 990 nM; that for `CCCC[C@H]1C(=O)N2CCC[C@@H]2C(=O)N[C@@H](CC(=O)O)C(=O)N[C@@H](C(C)C)C(=O)N(C)[C@@H](Cc2ccccc2)C(=O)N[C@@H](CC(=O)O)C(=O)N2CCC[C@@H]2C(=O)N[C@@H](Cc2c[nH]c3ccccc23)C(=O)N[C@@H](Cc2ccc(O)cc2)C(=O)N[C@@H](CCO)C(=O)N[C@H](C(=O)NCC(N)=O)CSCC(=O)N[C@@H](Cc2cc(F)c(F)c(F)c2)C(=O)N(C)[C@@H](Cc2ccccc2)C(=O)N1C` [Example 10170] ({CH2CO}-[Phe(3,4,5-F3)][NMeF][NMeNle][dP]DV[NMeF]D[dP]WY[hSer]CG-NH2; thioether N-13), 1 to 9.9 nM.
